Measurements reported in US20230093861A1, “RAPAMYCIN ANALOGS AS MTOR INHIBITORS” (Revolution Medicines, Inc., priority 2017, published 2023).

Assays:
P-Akt (S473) = test: Cell based AlphaLISA assay, inhibition of P-Akt (S473) (mTORC2 substrate phosphorylation) in MDA-MB-468 cells; details: Homo sapiens, MDA-MB-468, 4 h, AlphaLISA, two to four hours at 37° C., read-out: pIC50 for Inhibition of mTORC1 and mTORC2 Substrate Phosphorylation, p-AKT 1/2/3 -(S473) (converted)
How it was run: (§1)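 Cells are exposed to inhibitor, then the assay buffer is taken off and kit lysis buffer added. Lysates undergo AlphaLISA SureFire Ultra detection in duplicate.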

P-4E-BP1 (T37/46) = test: Cell based AlphaLISA assay, inhibition of P-4E-BP1 (T37/46) (mTORC1 substrate phosphorylation) in MDA-MB-468 cells; details: Homo sapiens, MDA-MB-468, 4 h, AlphaLISA, two to four hours at 37° C., read-out: pIC50 for Inhibition of mTORC1 and mTORC2 Substrate Phosphorylation, P-4E-BP1-(T37/46) (converted)
How it was run: as §1

P-P70S6K (T389) = test: Cell based AlphaLISA assay, inhibition of P-P70S6K (T389) (mTORC1 substrate phosphorylation) in MDA-MB-468 cells; details: Homo sapiens, 4 h, AlphaLISA, two to four hours at 37° C., read-out: pIC50 for Inhibition of mTORC1 and mTORC2 Substrate Phosphorylation, P-P70S6K-(T389) (converted)
How it was run: as §1

Compound	IC50 (P-Akt (S473)) [nM]	IC50 (P-4E-BP1 (T37/46)) [nM]	IC50 (P-P70S6K (T389)) [nM]
CO[C@H]1C[C@@H]2CC[C@@H](C)[C@@](O)(O2)C(=O)C(=O)N2CCCC[C@H]2C(=O)O[C@H]([C@H](C)C[C@@H]2CC[C@@H](OCCCCc3cn(CCOCCOCCOCCNC(=O)CCCCC(=O)NCCCCn4nc(-c5ccc6oc(N)nc6c5)c5c(N)ncnc54)nn3)[C@H](OC)C2)CC(=O)[C@H](C)/C=C(\C)[C@@H](O)[C@@H](OC)C(=O)[C@H](C)C[C@H](C)/C=C/C=C/C=C/1C [Example 102]	3.16 to 31.6	3.16 to 31.6	< 1
CO[C@H]1C[C@@H]2CC[C@@H](C)[C@@](O)(O2)C(=O)C(=O)N2CCCC[C@H]2C(=O)O[C@H]([C@H](C)C[C@@H]2CC[C@@H](OCCCCc3cn(CCOCCOCCOCCOCCNC(=O)CCCCC(=O)NCCCCn4nc(-c5ccc6oc(N)nc6c5)c5c(N)ncnc54)nn3)[C@H](OC)C2)CC(=O)[C@H](C)/C=C(\C)[C@@H](O)[C@@H](OC)C(=O)[C@H](C)C[C@H](C)/C=C/C=C/C=C/1C [Example 103]	3.16 to 31.6	< 3.16	< 1
CO[C@H]1C[C@@H]2CC[C@@H](C)[C@@](O)(O2)C(=O)C(=O)N2CCCC[C@H]2C(=O)O[C@H]([C@H](C)C[C@@H]2CC[C@@H](O)[C@H](OC)C2)C[C@@H](OC)[C@H](C)/C=C(\C)[C@@H](O)[C@@H](OC)C(=NOCc2cn(CCOCCOCCOCCOCCNC(=O)CCCC(=O)NCCCCn3nc(-c4ccc5oc(N)nc5c4)c4c(N)ncnc43)nn2)[C@H](C)C[C@H](C)/C=C/C=C/C=C/1C [Example 104]	31.6 to 1000	31.6 to 1000	1 to 10
CO[C@H]1C[C@@H]2CC[C@@H](C)[C@@](O)(O2)C(=O)C(=O)N2CCCC[C@H]2C(=O)O[C@H]([C@H](C)C[C@@H]2CC[C@@H](O)[C@H](OC)C2)C[C@@H](OC)[C@H](C)/C=C(\C)[C@@H](O)[C@@H](OC)C(=NOCc2cn(CCOCCOCCOCCOCCOCCNC(=O)CCC(=O)NCCCCn3nc(-c4ccc5oc(N)nc5c4)c4c(N)ncnc43)nn2)[C@H](C)C[C@H](C)/C=C/C=C/C=C/1C [Example 105]	31.6 to 1000	3.16 to 31.6	1 to 10
COc1cccc2cc(-c3nc([C@H]4CC[C@H](C(=O)NCCOCCOCCOCCOCCOCCOCCn5cc(CCCCO[C@@H]6CC[C@@H](C[C@@H](C)[C@@H]7CC(=O)[C@H](C)/C=C(\C)[C@@H](O)[C@@H](OC)C(=O)[C@H](C)C[C@H](C)/C=C/C=C/C=C(\C)[C@@H](OC)C[C@@H]8CC[C@@H](C)[C@@](O)(O8)C(=O)C(=O)N8CCCC[C@H]8C(=O)O7)C[C@H]6OC)nn5)CC4)n4ncnc(N)c34)[nH]c12 [Example 106]	3.16 to 31.6	< 3.16	< 1
CO[C@H]1C[C@@H]2CC[C@@H](C)[C@@](O)(O2)C(=O)C(=O)N2CCCC[C@H]2C(=O)O[C@H]([C@H](C)C[C@@H]2CC[C@@H](OCCCCc3cn(CCOCCOCCOCCOCCOCCOCCOCCOCCNC(=O)c4ccc(-c5ccc6c(N7CCOC[C@H]7C)nc(N7CCOC[C@H]7C)nc6n5)cc4)nn3)[C@H](OC)C2)CC(=O)[C@H](C)/C=C(\C)[C@@H](O)[C@@H](OC)C(=O)[C@H](C)C[C@H](C)/C=C/C=C/C=C/1C [Example 107]	< 3.16	< 3.16	< 1
COc1cccc2cc(-c3nc([C@H]4CC[C@H](C(=O)NCCOCCOCCOCCOCCOCCOCCOCCOCCn5cc(CCCCO[C@@H]6CC[C@@H](C[C@@H](C)[C@@H]7CC(=O)[C@H](C)/C=C(\C)[C@@H](O)[C@@H](OC)C(=O)[C@H](C)C[C@H](C)/C=C/C=C/C=C(\C)[C@@H](OC)C[C@@H]8CC[C@@H](C)[C@@](O)(O8)C(=O)C(=O)N8CCCC[C@H]8C(=O)O7)C[C@H]6OC)nn5)CC4)n4ncnc(N)c34)[nH]c12 [Example 108]	3.16 to 31.6	< 3.16	< 1
CO[C@H]1C[C@@H]2CC[C@@H](C)[C@@](O)(O2)C(=O)C(=O)N2CCCC[C@H]2C(=O)O[C@H]([C@H](C)C[C@@H]2CC[C@H](n3cc(-c4cnc(N5CCN(c6ncc(C(=O)NCCOCCC(=O)NCCCCn7nc(-c8ccc9oc(N)nc9c8)c8c(N)ncnc87)cn6)CC5)nc4)nn3)[C@H](OC)C2)CC(=O)[C@H](C)/C=C(\C)[C@@H](O)[C@@H](OC)C(=O)[C@H](C)C[C@H](C)/C=C/C=C/C=C/1C [Example 109]	> 1000	> 1000	< 1
CO[C@H]1C[C@@H]2CC[C@@H](C)[C@@](O)(O2)C(=O)C(=O)N2CCCC[C@H]2C(=O)O[C@H]([C@H](C)C[C@@H]2CC[C@H](n3cc(-c4cnc(N5CCN(c6ncc(C(=O)NCCOCCC(=O)NCCCCn7nc(-c8cc9cc(O)ccc9[nH]8)c8c(N)ncnc87)cn6)CC5)nc4)nn3)[C@H](OC)C2)CC(=O)[C@H](C)/C=C(\C)[C@@H](O)[C@@H](OC)C(=O)[C@H](C)C[C@H](C)/C=C/C=C/C=C/1C [Example 110]	> 1000	31.6 to 1000	< 1
CO[C@H]1C[C@@H]2CC[C@@H](C)[C@@](O)(O2)C(=O)C(=O)N2CCCC[C@H]2C(=O)O[C@H]([C@H](C)C[C@@H]2CC[C@H](n3cc(-c4cnc(N5CCN(c6ncc(C(=O)NCCOCCOCCC(=O)NCCCCn7nc(-c8ccc9oc(N)nc9c8)c8c(N)ncnc87)cn6)CC5)nc4)nn3)[C@H](OC)C2)CC(=O)[C@H](C)/C=C(\C)[C@@H](O)[C@@H](OC)C(=O)[C@H](C)C[C@H](C)/C=C/C=C/C=C/1C [Example 111]	31.6 to 1000	31.6 to 1000	< 1
CO[C@H]1C[C@@H]2CC[C@@H](C)[C@@](O)(O2)C(=O)C(=O)N2CCCC[C@H]2C(=O)O[C@H]([C@H](C)C[C@@H]2CC[C@H](n3cc(-c4cnc(N5CCN(c6ncc(C(=O)NCCOCCOCCC(=O)NCCCCn7nc(-c8cc9cc(O)ccc9[nH]8)c8c(N)ncnc87)cn6)CC5)nc4)nn3)[C@H](OC)C2)CC(=O)[C@H](C)/C=C(\C)[C@@H](O)[C@@H](OC)C(=O)[C@H](C)C[C@H](C)/C=C/C=C/C=C/1C [Example 112]	> 1000	> 1000	< 1
CO[C@H]1C[C@@H]2CC[C@@H](C)[C@@](O)(O2)C(=O)C(=O)N2CCCC[C@H]2C(=O)O[C@H]([C@H](C)C[C@@H]2CC[C@H](n3cc(-c4cnc(N5CCN(c6ncc(C(=O)NCCOCCOCCOCCC(=O)NCCCCn7nc(-c8ccc9oc(N)nc9c8)c8c(N)ncnc87)cn6)CC5)nc4)nn3)[C@H](OC)C2)CC(=O)[C@H](C)/C=C(\C)[C@@H](O)[C@@H](OC)C(=O)[C@H](C)C[C@H](C)/C=C/C=C/C=C/1C [Example 113]	3.16 to 31.6	< 3.16	< 1
CO[C@H]1C[C@@H]2CC[C@@H](C)[C@@](O)(O2)C(=O)C(=O)N2CCCC[C@H]2C(=O)O[C@H]([C@H](C)C[C@@H]2CC[C@H](n3cc(-c4cnc(N5CCN(c6ncc(C(=O)NCCOCCOCCOCCC(=O)NCCCCn7nc(-c8cc9cc(O)ccc9[nH]8)c8c(N)ncnc87)cn6)CC5)nc4)nn3)[C@H](OC)C2)CC(=O)[C@H](C)/C=C(\C)[C@@H](O)[C@@H](OC)C(=O)[C@H](C)C[C@H](C)/C=C/C=C/C=C/1C [Example 114]	> 1000	> 1000	< 1
CO[C@H]1C[C@@H]2CC[C@@H](C)[C@@](O)(O2)C(=O)C(=O)N2CCCC[C@H]2C(=O)O[C@H]([C@H](C)C[C@@H]2CC[C@H](n3cc(-c4cnc(N5CCN(c6ncc(C(=O)NCCOCCOCCOCCOCCC(=O)NCCCCn7nc(-c8ccc9oc(N)nc9c8)c8c(N)ncnc87)cn6)CC5)nc4)nn3)[C@H](OC)C2)CC(=O)[C@H](C)/C=C(\C)[C@@H](O)[C@@H](OC)C(=O)[C@H](C)C[C@H](C)/C=C/C=C/C=C/1C [Example 115]	< 3.16	< 3.16	< 1
CO[C@H]1C[C@@H]2CC[C@@H](C)[C@@](O)(O2)C(=O)C(=O)N2CCCC[C@H]2C(=O)O[C@H]([C@H](C)C[C@@H]2CC[C@H](n3cc(-c4cnc(N5CCN(c6ncc(C(=O)NCCOCCOCCOCCOCCC(=O)NCCCCn7nc(-c8cc9cc(O)ccc9[nH]8)c8c(N)ncnc87)cn6)CC5)nc4)nn3)[C@H](OC)C2)CC(=O)[C@H](C)/C=C(\C)[C@@H](O)[C@@H](OC)C(=O)[C@H](C)C[C@H](C)/C=C/C=C/C=C/1C [Example 116]	> 1000	3.16 to 31.6	< 1
CO[C@H]1C[C@@H]2CC[C@@H](C)[C@@](O)(O2)C(=O)C(=O)N2CCCC[C@H]2C(=O)O[C@H]([C@H](C)C[C@@H]2CC[C@H](n3cc(-c4cnc(N5CCN(c6ncc(C(=O)NCCOCCOCCOCCOCCC(=O)N7CCc8cc(Cn9nc(-c%10ccc%11oc(N)nc%11c%10)c%10c(N)ncnc%109)ccc8C7)cn6)CC5)nc4)nn3)[C@H](OC)C2)CC(=O)[C@H](C)/C=C(\C)[C@@H](O)[C@@H](OC)C(=O)[C@H](C)C[C@H](C)/C=C/C=C/C=C/1C [Example 117]	> 1000	> 1000	< 1
CO[C@H]1C[C@@H]2CC[C@@H](C)[C@@](O)(O2)C(=O)C(=O)N2CCCC[C@H]2C(=O)O[C@H]([C@H](C)C[C@@H]2CC[C@H](n3cc(-c4cnc(N5CCN(c6ncc(C(=O)NCCOCCOCCOCCOCCOCCC(=O)NCCCCn7nc(-c8ccc9oc(N)nc9c8)c8c(N)ncnc87)cn6)CC5)nc4)nn3)[C@H](OC)C2)CC(=O)[C@H](C)/C=C(\C)[C@@H](O)[C@@H](OC)C(=O)[C@H](C)C[C@H](C)/C=C/C=C/C=C/1C [Example 118]	3.16 to 31.6	< 3.16	< 1
